What was measured:
[1] = system: Rattus norvegicus; assay: In vivo inhibition of conditional avoidance response in rats(CAR), after po administration; assay type: functional
[2] = biological target: T1, 5-hydroxytryptamine receptor 1A (Rattus norvegicus, UniProt P19327); assay: Displacement of [3H]8-OH-DPAT from rat hippocampal 5-hydroxytryptamine 1A receptor; IA-Inactive; assay type: tissue-based, Hippocampus
T1 sequence (P19327 whole entry): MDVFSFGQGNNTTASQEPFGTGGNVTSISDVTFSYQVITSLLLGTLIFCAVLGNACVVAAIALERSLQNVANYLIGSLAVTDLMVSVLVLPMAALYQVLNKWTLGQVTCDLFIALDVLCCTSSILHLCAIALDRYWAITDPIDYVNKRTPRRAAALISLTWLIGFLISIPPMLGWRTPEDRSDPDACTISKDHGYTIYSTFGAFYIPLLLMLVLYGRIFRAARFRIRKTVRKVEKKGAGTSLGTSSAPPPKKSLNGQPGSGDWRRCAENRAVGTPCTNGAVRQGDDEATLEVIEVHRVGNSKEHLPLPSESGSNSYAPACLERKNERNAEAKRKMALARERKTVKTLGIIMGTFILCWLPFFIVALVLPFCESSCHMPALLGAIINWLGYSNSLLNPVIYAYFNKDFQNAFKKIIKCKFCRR

[3] = biological target: T2, 5-hydroxytryptamine receptor 2A (Rattus norvegicus, UniProt P14842); assay: Binding affinity against rat 5-hydroxytryptamine 2 receptor in rat cerebral cortex tissue using [3H]spiperone as radioligand; IA-Inactive; assay type: tissue-based
[4] = biological target: T3, D(2) dopamine receptor (Rattus norvegicus, UniProt P61169)
[5] = biological target: T1, 5-hydroxytryptamine receptor 1A; assay: Binding affinity against 5-hydroxytryptamine 1A receptor of rat hippocampal tissue with [3H]5-HT; assay type: tissue-based, Hippocampus
[6] = system: Rattus norvegicus; assay: In vivo inhibition of conditional avoidance response in rats(CAR), after sc administration; assay type: functional
[7] = biological target: T4, Adrenergic receptor alpha-1 (Rattus norvegicus, UniProt P15823+P23944+P43140); assay: Binding affinity against alpha-1 adrenergic receptor in rat cerebral cortex tissue using [3H]WB-4101 as radioligand; assay type: tissue-based
T4 sequence (P15823 whole entry): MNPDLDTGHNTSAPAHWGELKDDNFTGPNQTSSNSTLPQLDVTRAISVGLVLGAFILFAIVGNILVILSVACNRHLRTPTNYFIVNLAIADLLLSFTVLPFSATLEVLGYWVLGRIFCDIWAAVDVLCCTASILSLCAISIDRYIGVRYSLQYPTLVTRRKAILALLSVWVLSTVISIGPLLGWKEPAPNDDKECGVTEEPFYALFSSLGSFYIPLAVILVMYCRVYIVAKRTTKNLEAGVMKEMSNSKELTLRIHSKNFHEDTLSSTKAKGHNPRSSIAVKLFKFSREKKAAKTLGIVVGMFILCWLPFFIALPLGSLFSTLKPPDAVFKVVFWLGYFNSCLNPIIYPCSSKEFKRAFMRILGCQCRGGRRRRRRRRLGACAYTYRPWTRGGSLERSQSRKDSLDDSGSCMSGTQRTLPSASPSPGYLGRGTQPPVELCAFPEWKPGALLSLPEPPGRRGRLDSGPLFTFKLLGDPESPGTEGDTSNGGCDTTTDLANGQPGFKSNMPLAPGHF
T4 sequence (P23944 whole entry): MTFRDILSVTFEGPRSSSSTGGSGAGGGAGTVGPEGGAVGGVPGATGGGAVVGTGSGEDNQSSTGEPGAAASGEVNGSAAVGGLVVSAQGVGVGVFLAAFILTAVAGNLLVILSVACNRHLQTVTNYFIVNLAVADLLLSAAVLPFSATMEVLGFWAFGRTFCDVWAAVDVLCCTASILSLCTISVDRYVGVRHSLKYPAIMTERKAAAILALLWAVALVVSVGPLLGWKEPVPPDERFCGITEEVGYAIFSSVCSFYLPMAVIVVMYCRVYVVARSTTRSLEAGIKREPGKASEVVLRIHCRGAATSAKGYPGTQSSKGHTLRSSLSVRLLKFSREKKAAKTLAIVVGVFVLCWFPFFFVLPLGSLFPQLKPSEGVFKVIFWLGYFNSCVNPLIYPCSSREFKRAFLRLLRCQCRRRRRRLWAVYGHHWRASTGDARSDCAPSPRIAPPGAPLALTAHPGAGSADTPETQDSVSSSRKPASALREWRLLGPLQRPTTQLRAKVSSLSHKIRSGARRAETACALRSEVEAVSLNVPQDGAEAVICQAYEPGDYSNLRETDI
T4 sequence (P43140 whole entry): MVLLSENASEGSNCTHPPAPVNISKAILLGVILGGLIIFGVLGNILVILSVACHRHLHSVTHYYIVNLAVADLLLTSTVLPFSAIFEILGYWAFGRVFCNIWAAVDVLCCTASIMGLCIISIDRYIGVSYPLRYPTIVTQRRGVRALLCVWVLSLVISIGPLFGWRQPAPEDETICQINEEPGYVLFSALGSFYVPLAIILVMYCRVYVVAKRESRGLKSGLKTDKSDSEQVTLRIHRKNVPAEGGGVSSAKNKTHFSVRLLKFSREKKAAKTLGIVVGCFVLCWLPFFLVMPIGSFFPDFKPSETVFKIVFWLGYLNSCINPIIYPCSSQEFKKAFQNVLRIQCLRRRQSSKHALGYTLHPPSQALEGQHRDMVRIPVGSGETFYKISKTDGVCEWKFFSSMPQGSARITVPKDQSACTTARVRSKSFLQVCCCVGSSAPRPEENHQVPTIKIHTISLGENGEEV

[8] = biological target: T3, D(2) dopamine receptor; assay: Binding affinity against dopamine receptor D2 in rat corpus striatal tissue using [3H]spiperone as radioligand; assay type: tissue-based, Striatum
[9] = species: Rattus norvegicus; assay: Selectivity ratio of IC50 for dopamine receptor and Alpha-1 receptor
[10] = biological target: T1, 5-hydroxytryptamine receptor 1A; assay: Binding affinity against 5-hydroxytryptamine 1A receptor using in rat hippocampal tissue using [3H]8-OH-DPAT as radioligand; assay type: tissue-based, Hippocampus
[11] = system: Rattus norvegicus; assay: In vivo inhibition of conditional avoidance response in rats(CAR), after im administration; assay type: functional
[12] = biological target: T3, D(2) dopamine receptor; assay: Binding affinity against Dopamine receptor D2 receptor of rat corpus striatal tissue with [3H]spiperone
[13] = biological target: T2, 5-hydroxytryptamine receptor 2A; assay: Binding affinity against rat 5-hydroxytryptamine 2 receptor in rat cerebral cortex tissue using [3H]spiperone as radioligand; assay type: tissue-based

T3 sequence (P61169 whole entry): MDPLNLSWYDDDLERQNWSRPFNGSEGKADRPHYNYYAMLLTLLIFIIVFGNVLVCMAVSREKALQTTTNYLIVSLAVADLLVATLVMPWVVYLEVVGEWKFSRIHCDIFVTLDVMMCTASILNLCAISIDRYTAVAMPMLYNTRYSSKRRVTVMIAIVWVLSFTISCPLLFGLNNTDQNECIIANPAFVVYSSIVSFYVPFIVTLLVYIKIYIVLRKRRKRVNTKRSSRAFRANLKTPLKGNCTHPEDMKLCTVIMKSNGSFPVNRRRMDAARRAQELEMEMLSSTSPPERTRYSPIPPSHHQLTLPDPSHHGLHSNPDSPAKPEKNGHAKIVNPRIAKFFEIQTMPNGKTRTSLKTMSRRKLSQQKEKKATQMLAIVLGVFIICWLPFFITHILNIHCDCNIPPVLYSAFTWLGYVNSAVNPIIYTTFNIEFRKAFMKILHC
T2 sequence (P14842 whole entry): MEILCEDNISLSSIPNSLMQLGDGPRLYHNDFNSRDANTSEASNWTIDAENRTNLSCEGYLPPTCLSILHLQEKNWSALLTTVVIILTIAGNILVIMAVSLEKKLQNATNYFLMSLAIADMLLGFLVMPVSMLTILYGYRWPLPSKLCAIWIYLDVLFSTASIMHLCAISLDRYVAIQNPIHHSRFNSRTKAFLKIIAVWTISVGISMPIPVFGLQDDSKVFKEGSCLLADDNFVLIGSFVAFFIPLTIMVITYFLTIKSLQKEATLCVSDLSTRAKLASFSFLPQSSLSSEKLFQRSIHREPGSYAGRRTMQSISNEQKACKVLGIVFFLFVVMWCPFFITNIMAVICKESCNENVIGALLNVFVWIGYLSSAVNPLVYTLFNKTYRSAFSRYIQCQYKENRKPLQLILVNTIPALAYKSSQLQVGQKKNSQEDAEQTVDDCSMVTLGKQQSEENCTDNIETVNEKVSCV

| SMILES | IC50 [2] | IC50 [3] | IC50 [4] | IC50 [10] | further results |
| --- | --- | --- | --- | --- | --- |
| O=C1CC2(CCCC2)CC(=O)N1CCCCN1CCN(c2n[s+]([O-])c3ccccc23)CC1 (stereo not drawn) | Not Active | Not Active | Not Active | – | ED50 [1]: 11 mg/kg |
| O=S1(=O)N=C(N2CCNCC2)c2ccccc21 [BENZISOTHIAZOLE-3YL-PIPERAZINE SULFOXIDE] | Not Active | Not Active | Not Active | – | ED50 [1]: > 100 mg/kg |
| COc1cccc2snc(N3CCNCC3)c12 | – | Not Active | Not Active | – | IC50 [5]: 121 nM |
| O=C1CC2(CCCC2)C(O)C(=O)N1CCCCN1CCN(c2n[s+]([O-])c3ccccc23)CC1 (stereo not drawn) | Not Active | Not Active | Not Active | – | – |
| [O-][s+]1nc(N2CCNCC2)c2ccccc21 (stereo not drawn) [BITP-SULFONE] | Not Active | Not Active | Not Active | – | ED50 [1]: > 100 mg/kg |
| O=C1CC2(CCC(O)C2)CC(=O)N1CCCCN1CCN(c2n[s+]([O-])c3ccccc23)CC1 (stereo not drawn) | Not Active | Not Active | Not Active | – | ED50 [6]: > 100 mg/kg |
| O=C1CC2(CCCC2)CC(=O)N1CCC(O)CN1CCN(c2nsc3ccccc23)CC1 (stereo not drawn) | – | – | – | 24.9 nM | IC50 [7]: 8.3 nM; IC50 [8]: 111 nM; Ratio [9]: 13 |
| O=C1CC2(CCC(O)C2)CC(=O)N1CCCCN1CCN(c2nsc3ccccc23)CC1 (stereo not drawn) | – | – | – | 3.75 nM | IC50 [7]: 0.876 nM; IC50 [8]: 52.5 nM; Ratio [9]: 60 |
| O=C1CN(C2=NS(=O)(=O)c3ccccc32)CCN1 | Not Active | Not Active | Not Active | – | ED50 [6]: > 50 mg/kg |
| COc1ccc2c(N3CCNCC3)nsc2c1 | Not Active | Not Active | Not Active | – | – |
| O=C1CC2(CCCC2)C(O)C(=O)N1CCCCN1CCN(C2=NS(=O)(=O)c3ccccc32)CC1 (stereo not drawn) | Not Active | Not Active | Not Active | – | – |
| O=C1CC2(CCCC2)C(O)C(=O)N1CCCCN1CCN(c2nsc3ccccc23)CC1 (stereo not drawn) | – | – | – | 5.06 nM | ED50 [11]: 1 mg/kg |
| O=C1CC2(CCC(O)C2)CC(=O)N1CCC(O)CN1CCN(c2nsc3ccccc23)CC1 (stereo not drawn) | – | – | – | 14.2 nM | IC50 [7]: 7.15 nM; IC50 [8]: 491 nM; Ratio [9]: 69 |
| O=C1CCC2(C1)CC(=O)N(CCCCN1CCN(c3n[s+]([O-])c4ccccc34)CC1)C(=O)C2 (stereo not drawn) | Not Active | Not Active | Not Active | – | ED50 [6]: > 100 mg/kg |
| O=C1CCC2(C1)CC(=O)N(CCCCN1CCN(c3nsc4ccccc34)CC1)C(=O)C2 | – | – | – | 2.99 nM | ED50 [6]: > 60.3 mg/kg; IC50 [7]: 1.3 nM; IC50 [8]: 68.3 nM; Ratio [9]: 52 |
| COc1cccc2c(N3CCNCC3)nsc12 | Not Active | Not Active | Not Active | – | – |
| O=C1CC2(CCC(O)C2)CC(=O)N1CCCCN1CCN(C2=NS(=O)(=O)c3ccccc32)CC1 (stereo not drawn) | Not Active | Not Active | Not Active | – | ED50 [6]: > 100 mg/kg |
| O=C1CC2(CCCC2)CC(=O)N1CCCCN1CCN(c2nsc3ccccc23)CC1 [TIOSPIRONE] | – | – | – | – | IC50 [12]: 8.4 nM; ED50 [11]: 0.35 mg/kg |
| c1ccc2c(N3CCNCC3)nsc2c1 [BENZISOTHIAZOLE-3-YL-PIPERAZINE] | – | – | Not Active | 190 nM | ED50 [1]: > 100 mg/kg |
| O=C1CC2(CCCC2)C(C(=O)NCCCCN2CCN(c3nsc4ccccc34)CC2)O1 (stereo not drawn) | – | – | – | 98.7 nM | IC50 [7]: 2.5 nM; IC50 [8]: 150 nM; IC50 [13]: 4.5 nM; Ratio [9]: 60 |
| O=C1CC2(CCCC2)CC(=O)N1CCC(O)CN1CCN(c2n[s+]([O-])c3ccccc23)CC1 (stereo not drawn) | Not Active | Not Active | Not Active | – | ED50 [1]: > 50 mg/kg |
| COc1ccc2snc(N3CCNCC3)c2c1 | – | Not Active | Not Active | – | IC50 [5]: 20.9 nM |
| O=C1CC2(CCCC2)CC(=O)N1CCCCN1CCN(C2=NS(=O)(=O)c3ccccc32)CC1 | Not Active | Not Active | Not Active | – | ED50 [11]: > 10 mg/kg |

— ChEMBL document CHEMBL1125892 (J Med Chem, 1991)
